Measured values from ChEMBL document CHEMBL4610056, “Development of novel small molecules for the treatment of ALS” (Bioorg Med Chem Lett, 2020).

Tests used:
[1] = Activation of NF-kappaB (unknown origin) relative to control; conditions: Homo sapiens
[2] = Activation of NF-kappaB (unknown origin); parameters: species or system Homo sapiens
Homo sapiens = species on record: Homo sapiens; test: Potency index, ratio of SRI-22818 EC50 to test compound EC50 for activation of NF-kappaB (unknown origin)

Row | Structure (SMILES) | Emax [1] [%] | EC50 ([2]; read-out: EC50) [nM] | EC50 [2] | Ratio EC50 (Homo sapiens)
1 | O=C(Nc1ccc2c(c1)OCO2)c1ccn(-c2ccccc2F)c1 | 34 | 11300 |  | 
2 | O=C(c1ccc2c(c1)OCO2)c1ccn(-c2cccc(F)c2)c1 | 13.8 | 17700 |  | 
3 | O=C(/C=C\Nc1ccccc1C(F)(F)F)c1ccc2c(c1)OCO2 | 8 | 3100 |  | 
4 | Cc1cccc2c(C(=O)c3ccc4c(c3)OCO4)c[nH]c12 | 23 | 43200 |  | 
5 | O=C(c1ccc(F)c(F)c1)c1c[nH]c2cc(Br)ccc12 |  |  | Not Active | 
6 | O=C(c1ccccc1)c1c[nH]c2c(Br)cccc12 |  |  | Not Active | 
7 | COc1cccnc1N/C=C\C(=O)c1ccccn1 | 24 | 300 |  | 
8 | O=C(/C=C\Nc1ncccc1F)c1ccc2c(c1)OCO2 | 17 | 100 |  | 5
9 | Cc1ccccc1N/C=C\C(=O)c1ccccn1 | 17 | 300 |  | 
10 | O=C(/C=C\Nc1ccccc1F)c1ccccn1 | 20 | 1000 |  | 
11 | O=C(/C=C\Nc1ccccc1)c1ccc2c(c1)OCO2 | 11 | 400 |  | 
12 | COc1ccccc1N/C=C\C(=O)c1ccccn1 | 8 | 200 |  | 
13 | O=C(c1ccc2c(c1)OCO2)c1c[nH]c2cc(Br)ccc12 | 11.2 | 1000 |  | 
14 | O=C(c1ccc2c(c1)OCO2)c1ccn(-c2ccc(F)cc2)c1 | 13.2 | 12900 |  | 
15 | O=C(c1ccc2c(c1)OCO2)c1c[nH]c2c(Br)cccc12 | 18 | 21400 |  | 
16 | O=C(c1ccc2c(c1)OCO2)c1c[nH]c2cc(Cl)ccc12 | 13.2 | 1200 |  | 
17 | O=C(c1ccc(F)c(F)c1)c1ccn(-c2ccccc2F)c1 | 13 | 5840 |  | 
18 | O=C(/C=C\Nc1ccccc1Cl)c1ccc2c(c1)OCO2 | 24 | 500 |  | 
19 | O=C(c1ccncc1)c1c[nH]c2c(Br)cccc12 |  |  | Not Active | 
20 | O=C(c1ccc2c(c1)OCO2)c1c[nH]c2c(F)cccc12 | 18 | 13400 |  | 
21 | O=C(/C=C\Nc1ncccc1C(F)(F)F)c1ccccn1 | 16 | 700 |  | 
22 | O=C(/C=C\Nc1ccccc1Br)c1ccccn1 |  |  | Not Active | 
23 | Fc1ccccc1-n1ccc(CNc2ccc3c(c2)OCO3)c1 | 10.4 | 15000 |  | 
24 | O=C(c1ccc(Cl)c(Cl)c1)c1c[nH]c2cc(Br)ccc12 |  |  | Not Active | 
25 | O=C(c1ccc2c(c1)OCO2)c1ccn(-c2ccccc2F)c1 | 12.5 | 3210 |  | 
26 | COc1ccccc1N/C=C\C(=O)c1ccc2c(c1)OCO2 | 14 | 3900 |  | 

Row | Structure (SMILES) | Emax [1] [%] | EC50 ([2]; read-out: EC50) [nM] | EC50 [2] | Ratio EC50 (Homo sapiens)
27 | O=C(CCNc1ccccc1Br)c1ccc2c(c1)OCO2 |  |  | Not Active | 
28 | O=C(c1ccccn1)c1c[nH]c2c(Br)cccc12 |  |  | Not Active | 
29 | O=C(/C=C\Nc1ccccc1Br)c1ccc2c(c1)OCO2 | 26 | 500 |  | 
30 | O=C(c1ccc2c(c1)OCO2)c1c[nH]c2cccc(Br)c12 |  |  | Not Active | 
31 | Cc1ccc(C(=O)c2c[nH]c3cc(Br)ccc23)cc1C |  |  | Not Active | 
32 | O=C(c1ccc2c(c1)OCO2)c1ccn(-c2ccccc2Br)c1 |  |  | Not Active | 
33 | Cn1cc(C(=O)c2ccc3c(c2)OCO3)c2cccc(Br)c21 |  |  | Not Active | 
34 | O=C(c1ccc2c(c1)OCO2)c1c[nH]c2cc(F)ccc12 | 8.6 | 4400 |  | 
35 | O=C(c1ccc(Cl)c(Cl)c1)c1ccn(-c2ccccc2F)c1 | 8.3 | 7710 |  | 
36 | O=C(c1ccc2c(c1)OCO2)c1ccn(-c2ccccc2Cl)c1 | 15.1 | 7800 |  | 
37 | O=C(c1ccc2c(c1)OCO2)c1c[nH]c2cnccc12 |  |  | Not Active | 
38 | Cc1cccnc1N/C=C\C(=O)c1ccc2c(c1)OCO2 | 22 | 300 |  | 
39 | Cc1cccnc1N/C=C\C(=O)c1ccccn1 | 22 | 900 |  | 
40 | COc1ccc(C(=O)c2c[nH]c3cc(Br)ccc23)cc1OC |  |  | Not Active | 
41 | O=C(/C=C\Nc1ccccc1Cl)c1ccccn1 |  |  | Not Active | 
42 | Cc1ccc(C(=O)c2ccn(-c3ccccc3F)c2)cc1C | 19.9 | 11900 |  | 
43 | O=C(/C=C\Nc1ncccc1C(F)(F)F)c1ccc2c(c1)OCO2 | 23 | 800 |  | 
44 | O=C(c1ccc2c(c1)OCO2)c1c[nH]c2ccc(Br)cc12 | 3 | 4500 |  | 
45 | O=C(c1ccc2c(c1)OCO2)c1ccccc1Nc1ccccc1Br |  |  | Not Active | 
46 | COc1cccnc1N/C=C\C(=O)c1ccc2c(c1)OCO2 | 12 | 3300 |  | 
47 | O=C(/C=C\Nc1ncccc1F)c1ccccn1 | 14 | 900 |  | 
48 | O=C(/C=C\Nc1ccccc1C(F)(F)F)c1ccccn1 | 16 | 1400 |  | 
49 | O=C(/C=C\Nc1ccccc1F)c1ccc2c(c1)OCO2 | 22 | 320 |  | 
50 | Cc1ccccc1-n1ccc(C(=O)c2ccc3c(c2)OCO3)c1 | 10 | 22400 |  | 
51 | Cc1ccccc1N/C=C\C(=O)c1ccc2c(c1)OCO2 | 24 | 800 |  | 
